EC50 data for 33 compounds are collected here from US10308637B2 (LifeSci Pharmaceuticals, Inc., priority 2015, dated 2019).

A short description of the assay: Contact Assay (percentage inhibition from fluorescence intensity). It counts as biochemical. The procedure:
The percentage inhibition was calculated using the following equation:
[formula] where, Mean(BG) is the average value of the fluorescence intensity of the background wells and Mean(PC) is the average value of the fluorescence intensity of the positive control wells.
Table 4 provides the EC50 values of various compounds disclosed herein.
As to `Cc1cc(N)nc(C)c1CNC(=O)c1cc(CN)nc(Cc2ccc3ncc(Cl)cc3c2)c1` [Example 211, N-((6-amino-2,4-dimethylpyridin-3-yl)methyl)-2-(aminomethyl)-6-((3-chloroquinolin-6-yl)methyl)isonicotinamide], the EC50 (as a rule, the midpoint of the concentration-response curve) is not above 100 nM.
In the case of `Cc1cc(N)nc(C)c1CNC(=O)c1cc(CO)nc(Cc2ccc3ncc(Cl)cc3c2)c1` [Example 212, N-((6-amino-2,4-dimethylpyridin-3-yl)methyl)-2-((3-chloroquinolin-6-yl)methyl)-6-(hydroxymethyl)isonicotinamide] it was not above 100 nM.
In the case of `Cc1cc(N)nc(C)c1CNC(=O)c1cc(CC#N)nc(Cc2ccc3ncc(Cl)cc3c2)c1` [Example 213, N-((6-amino-2,4-dimethylpyridin-3-yl)methyl)-2-((3-chloroquinolin-6-yl)methyl)-6-(cyanomethyl)isonicotinamide] it was not above 100 nM.
In the case of `Cc1cc(N)nc(C)c1CNC(=O)c1cc(CC(N)=O)nc(Cc2ccc3ncc(Cl)cc3c2)c1` [Example 214, N-((6-amino-2,4-dimethylpyridin-3-yl)methyl)-2-(2-amino-2-oxoethyl)-6-((3-chloroquinolin-6-yl)methyl)isonicotinamide] it was not above 100 nM.
With `Cc1cc(N)nc(C)c1CNC(=O)c1ccnc(Cc2cc3cc(C(F)(F)F)cnc3[nH]2)c1` [Example 215, N-((6-amino-2,4-dimethylpyridin-3-yl)methyl)-2-((5-(trifluoromethyl)-1H-pyrrolo[2,3-b]pyridin-2-yl)methyl)isonicotinamide], the EC50 fell in the range of 100 to 1000 nM.
Next, `Cc1cc(N)nc(C)c1CNC(=O)c1ccnc(Cc2cc(N)c3ncc(Cl)cc3c2)c1` [Example 217, N-((6-amino-2,4-dimethylpyridin-3-yl)methyl)-2-((8-amino-3-chloroquinolin-6-yl)methyl)isonicotinamide]: not above 100 nM; `Cc1cc(N)nc(C)c1CNC(=O)c1ccnc(Cc2cc(C(C)(C)O)c3ncc(Cl)cc3c2)c1` [Example 219, N-((6-amino-2,4-dimethylpyridin-3-yl)methyl)-2-((3-chloro-8-(2-hydroxypropan-2-yl)quinolin-6-yl)methyl)isonicotinamide]: not above 100 nM.
In the case of `Cc1nc(N)ccc1CNC(=O)c1ccnc(Cc2cc(C(C)(C)O)c3ncc(Cl)cc3c2)c1` [Example 220, N-((6-amino-2-methylpyridin-3-yl)methyl)-2-((3-chloro-8-(2-hydroxypropan-2-yl)quinolin-6-yl)methyl)isonicotinamide] it was not above 100 nM; in that of `CC(C)(O)c1cc(Cc2cc(C(=O)NCc3cc4c(Cl)c[nH]c4cc3F)ccn2)cc2cc(Cl)cnc12` [Example 221, N-((3-chloro-6-fluoro-1H-indol-5-yl)methyl)-2-((3-chloro-8-(2-hydroxypropan-2-yl)quinolin-6-yl)methyl)isonicotinamide], 100 to 1000 nM.
In the case of `CC(C)(O)c1cc(Cc2cc(C(=O)NCc3ccc4[nH]cc(Cl)c4c3F)ccn2)cc2cc(Cl)cnc12` [Example 222, N-((3-chloro-4-fluoro-1H-indol-5-yl)methyl)-2-((3-chloro-8-(2-hydroxypropan-2-yl)quinolin-6-yl)methyl)isonicotinamide] it was 100 to 1000 nM; in that of `CC(C)(O)c1cc(Cc2cc(C(=O)NCc3cnc4[nH]cc(Cl)c4c3)ccn2)cc2cc(Cl)cnc12` [Example 223, N-((3-chloro-1H-pyrrolo[2,3-b]pyridin-5-yl)methyl)-2-((3-chloro-8-(2-hydroxypropan-2-yl)quinolin-6-yl)methyl)isonicotinamide], not above 100 nM; in that of `CC(C)(O)c1cc(Cc2cc(C(=O)NCc3ccc4c(N)nccc4c3)ccn2)cc2cc(Cl)cnc12` [Example 224, N-((1-aminoisoquinolin-6-yl)methyl)-2-((3-chloro-8-(2-hydroxypropan-2-yl)quinolin-6-yl)methyl)isonicotinamide], not above 100 nM.
Regarding `CC(C)(O)c1cc(Cc2cc(C(=O)NCc3n[nH]c4ccc(Cl)cc34)ccn2)cc2cc(Cl)cnc12` [Example 225, N-((5-chloro-1H-indazol-3-yl)methyl)-2-((3-chloro-8-(2-hydroxypropan-2-yl)quinolin-6-yl)methyl)isonicotinamide], the EC50 was in the range of 100 to 1000 nM.
Next, `Cc1cc(N)nc(C)c1CNC(=O)c1ccnc(Cc2cnc3cc(F)c(Cl)cc3c2)c1` [Example 226, N-((6-amino-2,4-dimethylpyridin-3-yl)methyl)-2-((6-chloro-7-fluoroquinolin-3-yl)methyl)isonicotinamide]: not above 100 nM.
In the case of `Cc1cc(N)nc(C)c1CNC(=O)c1ccnc(Cc2ccc3ncc(C(F)(F)F)cc3c2)c1` [Example 228, N-((6-amino-2,4-dimethylpyridin-3-yl)methyl)-2-((3-(trifluoromethyl)quinolin-6-yl)methyl)isonicotinamide] it was not above 100 nM.
In the case of `Cc1nc(N)ccc1CNC(=O)c1ccnc(Cc2ccc3ncc(C(F)(F)F)cc3c2)c1` [Example 229, N-((6-amino-2-methylpyridin-3-yl)methyl)-2-((3-(trifluoromethyl)quinolin-6-yl)methyl)isonicotinamide], the EC50 is not above 100 nM.
`O=C(NCc1cc2c(Cl)c[nH]c2cc1F)c1ccnc(Cc2ccc3ncc(C(F)(F)F)cc3c2)c1` [Example 230, N-((3-chloro-6-fluoro-1H-indol-5-yl)methyl)-2-((3-(trifluoromethyl)quinolin-6-yl)methyl)isonicotinamide]: the EC50 was 100 to 1000 nM.
Next, `O=C(NCc1cnc2[nH]cc(Cl)c2c1)c1ccnc(Cc2ccc3ncc(C(F)(F)F)cc3c2)c1` [Example 231, N-((3-chloro-1H-pyrrolo[2,3-b]pyridin-5-yl)methyl)-2-((3-(trifluoromethyl)quinolin-6-yl)methyl)isonicotinamide]: 100 to 1000 nM.
`Nc1nccc2cc(CNC(=O)c3ccnc(Cc4ccc5ncc(C(F)(F)F)cc5c4)c3)ccc12` [Example 232, N-((1-aminoisoquinolin-6-yl)methyl)-2-((3-(trifluoromethyl)quinolin-6-yl)methyl)isonicotinamide] returned a half-maximal effective concentration (EC50) not above 100 nM.
In the case of `O=C(NCc1ccc2[nH]cc(Cl)c2c1F)c1ccnc(Cc2ccc3ncc(C(F)(F)F)cc3c2)c1` [Example 234, N-((3-chloro-4-fluoro-1H-indol-5-yl)methyl)-2-((3-(trifluoromethyl)quinolin-6-yl)methyl)isonicotinamide] it was 100 to 1000 nM.
In the case of `Cc1cc(N)nc(C)c1CNC(=O)c1ccnc(Cc2cc(S(N)(=O)=O)c3ncc(Cl)cc3c2)c1` [Example 235, N-((6-amino-2,4-dimethylpyridin-3-yl)methyl)-2-((3-chloro-8-sulfamoylquinolin-6-yl)methyl)isonicotinamide] it was not above 100 nM; in that of `Cc1nc(N)ccc1CNC(=O)c1ccnc(Cc2cc(S(N)(=O)=O)c3ncc(Cl)cc3c2)c1` [Example 236], not above 100 nM; in that of `Cc1cc(N)nc(C)c1CNC(=O)c1ccnc(Cc2ccc3nc(C)c(Cl)cc3c2)c1` [Example 238, N-((6-amino-2,4-dimethylpyridin-3-yl)methyl)-2-((3-chloro-2-methylquinolin-6-yl)methyl)isonicotinamide], not above 100 nM.
In the case of `Cc1nc2ccc(Cc3cc(C(=O)NCc4ccc(N)nc4C)ccn3)cc2cc1Cl` [Example 239, N-((6-amino-2-methylpyridin-3-yl)methyl)-2-((3-chloro-2-methylquinolin-6-yl)methyl)isonicotinamide] it was 100 to 1000 nM.
In the case of `Cc1cc(N)nc(C)c1CNC(=O)c1ccnc(Cc2cc(CN)c3ncc(Cl)cc3c2)c1` [Example 241, N-((6-amino-2,4-dimethylpyridin-3-yl)methyl)-2-((8-(aminomethyl)-3-chloroquinolin-6-yl)methyl)isonicotinamide], the EC50 is not above 100 nM.
Consider `Cc1cc(N)nc(C)c1CNC(=O)c1ccnc(Cc2ccc3ncc(C4CC4)cc3c2)c1` [Example 243, N-((6-amino-2,4-dimethylpyridin-3-yl)methyl)-2-((3-cyclopropylquinolin-6-yl)methyl)isonicotinamide], for which the EC50 is not above 100 nM.
`O=C(NCc1cc2c(Cl)c[nH]c2cc1F)c1ccnc(Cc2ccc3ncc(C4CC4)cc3c2)c1` [Example 245, N-((3-chloro-6-fluoro-1H-indol-5-yl)methyl)-2-((3-cyclopropylquinolin-6-yl)methyl)isonicotinamide] returned a concentration giving a half-maximal response (EC50) of 100 to 1000 nM.
On to `O=C(NCc1cnc2[nH]cc(Cl)c2c1)c1ccnc(Cc2ccc3ncc(C4CC4)cc3c2)c1` [Example 246, N-((3-chloro-1H-pyrrolo[2,3-b]pyridin-5-yl)methyl)-2-((3-cyclopropylquinolin-6-yl)methyl)isonicotinamide], for which the EC50 lay in the range of 100 to 1000 nM.
In the case of `Nc1nccc2cc(CNC(=O)c3ccnc(Cc4ccc5ncc(C6CC6)cc5c4)c3)ccc12` [Example 247, N-((1-aminoisoquinolin-6-yl)methyl)-2-((3-cyclopropylquinolin-6-yl)methyl)isonicotinamide] it was not above 100 nM; in that of `O=C(NCc1ccc2[nH]cc(Cl)c2c1F)c1ccnc(Cc2ccc3ncc(C4CC4)cc3c2)c1` [Example 248, N-((3-chloro-4-fluoro-1H-indol-5-yl)methyl)-2-((3-cyclopropylquinolin-6-yl)methyl)isonicotinamide], 100 to 1000 nM.
In the case of `O=C(NCc1n[nH]c2ccc(Cl)cc12)c1ccnc(Cc2ccc3ncc(C4CC4)cc3c2)c1` [Example 249, N-((5-chloro-1H-indazol-3-yl)methyl)-2-((3-cyclopropylquinolin-6-yl)methyl)isonicotinamide] it was 100 to 1000 nM; in that of `Cc1nc(N)ccc1CNC(=O)c1ccnc(Cc2cc(CN)c3ncc(Cl)cc3c2)c1` [Example 253, N-((6-amino-2-methylpyridin-3-yl)methyl)-2-((8-(aminomethyl)-3-chloroquinolin-6-yl)methyl)isonicotinamide], not above 100 nM.
In the case of `Cc1cc(N)nc(C)c1CNC(=O)c1ccnc(Cc2ccc3ncc(C(C)C)cc3c2)c1` [Example 254, N-((6-amino-2,4-dimethylpyridin-3-yl)methyl)-2-((3-isopropylquinolin-6-yl)methyl)isonicotinamide] it was not above 100 nM.
